Experimental data as given in PubChem BioAssay AID342 (DTP/NCI, 2004).
Several values for one entry are separate records, joined by “and”; a condition that tells them apart may be missing. Equal entries are not always repeated.

Tested on: Swiss mice, Sarcoma 180 sc, mean tumor weight T/C
Assay: NCI In Vivo Anticancer Drug Screen. Data for tumor model Sarcoma 180 (subcutaneous) in Swiss mice
Settings: endpoint: mean tumor weight, higher = larger tumour
Procedure, shortened: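 Transplantable tumors were established in mice, compound was given, then survival or tumor size was recorded. The treated value was divided by the vehicle-control value.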

[1] = dose: 90.0 mg/kg/injection, schedule: Q01DX007 (ip), vehicle: carboxymethylcellulose (CMC)
[2] = dose: 31.3 mg/kg/injection, schedule: Q01DX007 (ip), vehicle: saline
[3] = dose: 62.5 mg/kg/injection, schedule: Q01DX007 (ip), vehicle: saline
[4] = dose: 125.0 mg/kg/injection, schedule: Q01DX007 (ip), vehicle: saline

## CCSCCC(N)C(=O)O (stereo not given)
dose: 9.37 mg/kg/injection, schedule: Q#A X014 (ip), vehicle: carboxymethylcellulose (CMC)
  T/C: 80 % of control
dose: 18.2 mg/kg/injection, schedule: Q01DX007 (ip), vehicle: carboxymethylcellulose (CMC)
  T/C: 115 % of control
dose: 18.75 mg/kg/injection, schedule: Q#A X014 (ip), vehicle: carboxymethylcellulose (CMC)
  T/C: 116 % of control
dose: 25.0 mg/kg/injection, schedule: Q01DX007 (ip), vehicle: carboxymethylcellulose (CMC)
  T/C: 102 % of control
dose: 36.3 mg/kg/injection, schedule: Q01DX007 (ip), vehicle: carboxymethylcellulose (CMC)
  T/C: 98 % of control
dose: 37.5 mg/kg/injection, schedule: Q#A X014 (ip), vehicle: carboxymethylcellulose (CMC)
  T/C: 40 % of control
dose: 50.0 mg/kg/injection, schedule: Q01DX007 (ip), vehicle: carboxymethylcellulose (CMC)
  T/C: 80 % of control
dose: 72.5 mg/kg/injection, schedule: Q01DX007 (ip), vehicle: carboxymethylcellulose (CMC)
  T/C: 77 % of control
dose: 75.0 mg/kg/injection, schedule: Q#A X014 (ip), vehicle: carboxymethylcellulose (CMC)
  T/C: 36 % of control
[1]
  T/C: 106 % of control
dose: 100.0 mg/kg/injection, schedule: Q01DX007 (ip), vehicle: carboxymethylcellulose (CMC)
  T/C: 111 % of control
dose: 108.0 mg/kg/injection, schedule: Q01DX007 (ip), vehicle: carboxymethylcellulose (CMC)
  T/C: 98 % of control
dose: 145.0 mg/kg/injection, schedule: Q01DX007 (ip), vehicle: carboxymethylcellulose (CMC)
  T/C: 108 % of control
dose: 216.0 mg/kg/injection, schedule: Q01DX007 (ip), vehicle: carboxymethylcellulose (CMC)
  T/C: 107 % of control
dose: 432.0 mg/kg/injection, schedule: Q01DX007 (ip), vehicle: carboxymethylcellulose (CMC)
  T/C: 47 % of control

## CCOC(=O)CCc1ccc(N=NN2CCCC2)cc1
dose: 225.0 mg/kg/injection, schedule: Q01DX007 (ip), vehicle: carboxymethylcellulose (CMC)
  T/C: 110 % of control
dose: 450.0 mg/kg/injection, schedule: Q01DX007 (ip), vehicle: carboxymethylcellulose (CMC)
  T/C: 95 % of control

## CCCCCCCCCCCCCCCCCC1=NC(C)CC(C)(C)O1 (stereo not given)
dose: 187.5 mg/kg/injection, schedule: Q#A X014 (ip), vehicle: saline
  T/C: 63 % of control

## CN(C)c1nc(N(C)C)nc(N(C)C)n1
dose: 7.34 mg/kg/injection, schedule: Q#A X014 (ip), vehicle: carboxymethylcellulose (CMC)
  T/C: 86 % of control
dose: 14.67 mg/kg/injection, schedule: Q#A X014 (ip), vehicle: carboxymethylcellulose (CMC)
  T/C: 90 % of control
dose: 22.5 mg/kg/injection, schedule: Q01DX007 (ip), vehicle: carboxymethylcellulose (CMC)
  T/C: 117 % of control
dose: 23.45 mg/kg/injection, schedule: Q#A X014 (ip), vehicle: other
  T/C: 91 % of control
dose: 25.0 mg/kg/injection, schedule: Q01DX007 (ip), vehicle: methylcellulose (MC)
  T/C: 64 % of control
dose: 25.0 mg/kg/injection, schedule: Q01DX007 (oral), vehicle: carboxymethylcellulose (CMC)
  T/C: 58 % of control
dose: 25.0 mg/kg/injection, schedule: Q01DX007 (oral), vehicle: methylcellulose (MC)
  T/C: 102 % of control
dose: 29.35 mg/kg/injection, schedule: Q#A X014 (ip), vehicle: carboxymethylcellulose (CMC)
  T/C: 75 % of control
dose: 29.35 mg/kg/injection, schedule: Q#A X014 (ip), vehicle: other
  T/C: 80 % of control
dose: 31.25 mg/kg/injection, schedule: Q#A X014 (ip), vehicle: carboxymethylcellulose (CMC)
  T/C: 53 % of control
dose: 39.1 mg/kg/injection, schedule: Q#A X014 (ip), vehicle: other
  T/C: 83 % of control
dose: 45.0 mg/kg/injection, schedule: Q01DX007 (ip), vehicle: carboxymethylcellulose (CMC)
  T/C: 88 % of control
dose: 46.9 mg/kg/injection, schedule: Q01DX007 (ip), vehicle: other
  T/C: 49 % of control
dose: 50.0 mg/kg/injection, schedule: Q01DX007 (ip), vehicle: methylcellulose (MC)
  T/C: 61 % of control
dose: 50.0 mg/kg/injection, schedule: Q01DX007 (oral), vehicle: carboxymethylcellulose (CMC)
  T/C: 87 % of control
dose: 50.0 mg/kg/injection, schedule: Q01DX007 (oral), vehicle: methylcellulose (MC)
  T/C: 116 % of control
dose: 58.7 mg/kg/injection, schedule: Q01DX007 (ip), vehicle: other
  T/C: 51 % of control
dose: 58.7 mg/kg/injection, schedule: Q#A X014 (ip), vehicle: other
  T/C: 77 % of control
dose: 62.5 mg/kg/injection, schedule: Q#A X014 (ip), vehicle: carboxymethylcellulose (CMC)
  T/C: 26 % of control
dose: 78.2 mg/kg/injection, schedule: Q01DX007 (ip), vehicle: other
  T/C: 54 % of control
[1]
  T/C: 77 % of control
dose: 100.0 mg/kg/injection, schedule: Q01DX007 (ip), vehicle: methylcellulose (MC)
  T/C: 75 % of control
dose: 100.0 mg/kg/injection, schedule: Q01DX007 (oral), vehicle: carboxymethylcellulose (CMC)
  T/C: 67 % of control
dose: 100.0 mg/kg/injection, schedule: Q01DX007 (oral), vehicle: methylcellulose (MC)
  T/C: 108 % of control
dose: 117.4 mg/kg/injection, schedule: Q01DX007 (ip), vehicle: other
  T/C: 40 % of control
dose: 200.0 mg/kg/injection, schedule: Q01DX007 (ip), vehicle: methylcellulose (MC)
  T/C: 94 % of control
dose: 200.0 mg/kg/injection, schedule: Q01DX007 (oral), vehicle: carboxymethylcellulose (CMC)
  T/C: 57 % of control
dose: 200.0 mg/kg/injection, schedule: Q01DX007 (oral), vehicle: methylcellulose (MC)
  T/C: 114 % of control

## O=CNC(Cc1cccc(N(CCCl)CCCl)c1)C(=O)O (stereo not given)
dose: 2.5 mg/kg/injection, schedule: Q#A X014 (ip), vehicle: methylcellulose (MC)
  T/C: 45 % of control
dose: 4.5 mg/kg/injection, schedule: Q#A X014 (ip), vehicle: methylcellulose (MC)
  T/C: 21 % of control and 25 % of control
dose: 5.0 mg/kg/injection, schedule: Q#A X014 (ip), vehicle: methylcellulose (MC)
  T/C: 52 % of control
dose: 7.5 mg/kg/injection, schedule: Q#A X014 (ip), vehicle: methylcellulose (MC)
  T/C: 18 % of control
dose: 15.0 mg/kg/injection, schedule: Q#A X014 (ip), vehicle: methylcellulose (MC)
  T/C: 20 % of control

## O=C(O)Cc1c[nH]c2ccccc12
[2]
  T/C: 64 % of control
[3]
  T/C: 71 % of control
[4]
  T/C: 52 % of control
dose: 250.0 mg/kg/injection, schedule: Q01DX007 (ip), vehicle: saline
  T/C: 95 % of control

## CCCCCC[C@@H](O)C/C=C\CCCCCCCC(=O)O
[2]
  T/C: 59 % of control
[3]
  T/C: 95 % of control
[4]
  T/C: 87 % of control

## CCN(CC)CCNc1ccc(C)c2sc3ccccc3c(=O)c12
dose: 4.87 mg/kg/injection, schedule: Q#A X014 (ip), vehicle: carboxymethylcellulose (CMC)
  T/C: 120 % of control
dose: 7.5 mg/kg/injection, schedule: Q01DX007 (ip), vehicle: carboxymethylcellulose (CMC)
  T/C: 93 % of control
dose: 9.75 mg/kg/injection, schedule: Q01DX007 (ip), vehicle: carboxymethylcellulose (CMC)
  T/C: 60 % of control
dose: 9.75 mg/kg/injection, schedule: Q#A X014 (ip), vehicle: carboxymethylcellulose (CMC)
  T/C: 77 % of control
dose: 12.5 mg/kg/injection, schedule: Q#A X014 (ip), vehicle: carboxymethylcellulose (CMC)
  T/C: 85 % of control
dose: 15.0 mg/kg/injection, schedule: Q01DX007 (ip), vehicle: carboxymethylcellulose (CMC)
  T/C: 101 % of control
dose: 19.5 mg/kg/injection, schedule: Q01DX007 (ip), vehicle: carboxymethylcellulose (CMC)
  T/C: 72 % of control
dose: 19.5 mg/kg/injection, schedule: Q#A X014 (ip), vehicle: carboxymethylcellulose (CMC)
  T/C: 75 % of control
dose: 25.0 mg/kg/injection, schedule: Q#A X014 (ip), vehicle: carboxymethylcellulose (CMC)
  T/C: 64 % of control
dose: 30.0 mg/kg/injection, schedule: Q01DX007 (ip), vehicle: carboxymethylcellulose (CMC)
  T/C: 106 % of control
dose: 31.2 mg/kg/injection, schedule: Q01DX007 (ip), vehicle: carboxymethylcellulose (CMC)
  T/C: 117 % of control
dose: 39.0 mg/kg/injection, schedule: Q#A X014 (ip), vehicle: carboxymethylcellulose (CMC)
  T/C: 32 % of control
dose: 50.0 mg/kg/injection, schedule: Q#A X014 (ip), vehicle: carboxymethylcellulose (CMC)
  T/C: 35 % of control
dose: 52.0 mg/kg/injection, schedule: Q01DX007 (ip), vehicle: carboxymethylcellulose (CMC)
  T/C: 82 % of control
dose: 60.0 mg/kg/injection, schedule: Q01DX007 (ip), vehicle: carboxymethylcellulose (CMC)
  T/C: 55 % of control

## CC(CNC(=O)CCBr)NC(=O)CCBr (stereo not given)
dose: 110.0 mg/kg/injection, schedule: Q01DX007 (ip), vehicle: carboxymethylcellulose (CMC)
  T/C: 48 % of control and 64 % of control
dose: 167.8 mg/kg/injection, schedule: Q01DX007 (ip), vehicle: carboxymethylcellulose (CMC)
  T/C: 48 % of control
dose: 168.0 mg/kg/injection, schedule: Q01DX007 (ip), vehicle: carboxymethylcellulose (CMC)
  T/C: 34 % of control

## CC#CC(C)(O)CC (stereo not given)
dose: 77.0 mg/kg/injection, schedule: Q#A X014 (ip), vehicle: methylcellulose (MC)
  T/C: 79 % of control
dose: 115.5 mg/kg/injection, schedule: Q#A X014 (ip), vehicle: methylcellulose (MC)
  T/C: 75 % of control
dose: 175.0 mg/kg/injection, schedule: Q#A X014 (ip), vehicle: methylcellulose (MC)
  T/C: 51 % of control
dose: 212.5 mg/kg/injection, schedule: Q#A X014 (ip), vehicle: methylcellulose (MC)
  T/C: 44 % of control
